Key:
[1] = tested on: cultured chick heart cells; experiment: Effect of MSA on Tc-MIBI net accumulation (FIG. 3); format: cell-based; conditions: MSA 5.4 mM
Experimental: FIG. 3. Effect of MSA on Tc-MIBI net accumulation. Preparations were incubated for the times indicated in Tc-MIBI loading buffer containing 5.4 mM KCl (.quadrature., .smallcircle.) or 5.4 mM K-MSA ( , ·; prepared by equimolar substitution of K-MSA KCl) in the absence (.quadrature., ) or presence (.smallcircle., ·) of TPB (10^-5 M). Each point represents the mean ±SEM of 3 determinations.
Control buffer was a modified Earle's balanced salt solution (MEBSS) with the following composition (mN) Na^30, 145; K^+, 5.4; Ca^2, 1.2; Mg^2+, 0.8; Cl, 152; H2 PO4, 0.8; SO4^2-, 0.8; dextrose, 5.6; HEPES, 4.0; and bovine calf serum, 1% (v/v); […]; 37° C. K-methanesulfonate was made by titration of methanesulfonic acid with KOH (Piwnica-Worms, D., et al., J. Gen. Physiol. 81:731-748 (1983)) and replaced […] in some solutions by equimolar substitution where indicated. Natetraphenylborate, CCCP, bumetanide and valinomycin were dissolved into DMSO prior to addition to buffer. DMSO alone has no significant affect on contractile activity, action potential configuration (Lieberman, M., et al., Dev. Biol. 31:380-403 (1973)) or Tc-MIBI uptake kinetics (Piwnica-Worms, D., et al., Circ. (in press)).
Monolayers of spontaneously contractile chick ventricular myocardial cells were obtained from disaggregated 10-day old chick embryo hearts by a slight modification of previously published methods (Horres, C. R., et al., In Pinson, A. (ed.), The Heart Cell in Culture, Boca Raton, CRC Press, pp. 77-108 (1987)). […] Cells were centrifuged at 400 g for 10 minutes, resuspended and combined in culture medium, counted with a hemocytometer and diluted to yield a suspension of 5×10^5 cells/ml. […]
(§1) Radioactive uptake methods have been described in detail (Piwnica-Worms, D., et al, Circ. (in press). Briefly, coverslips with confluent cells were removed from culture media and pre-equilibrated for 40-60 seconds in MEBSS buffer. Uptake and retention experiments were initiated by immersion of coverslips in 60 mm glass Pyrex dishes containing loading solution consisting of buffer with 0.1-0.6 nM [^99m Tc-MIBI] (0.01-0.4 Ci/nmole; 25-100 uCi/ml). Preparations were removed at various times and rinsed three times in 25 ml volumes of ice-cold (2° C.) isotope-free buffer for 8 seconds each to clear extracellular spaces. Preparations and aliquots of the loading buffer and stock solutions were counted in a well-type sodium iodide gamma counter after which cell protein on each coverslip was extracted in 1% sodium dodecylsulfate with 10 mM sodium borate and assayed by the method of Lowry (Lowry, O. H., et al., J. Biol. Chem. 193:265-275 (1951)). […]

[2] = tested on: cultured chick myocardial cells; conditions: cited from earlier work
[3] = tested on: cultured chick heart cells; experiment: Influence of TPB and CCCP on (membrane potential-independent) accumulation of Tc-MIBI (FIG. 4); format: cell-based; conditions: CCCP 5 uM; presence and absence of TPB; P<0.001
Experimental: FIG. 4. […] Preparations were incubated for the times indicated in 5.4 mM Ko control loading buffer containing tracer Tc-MIBI and TPB together (Δ) or in loading buffer containing Tc-MIBI alone (.quadrature.). For the latter incubation, TPB was added to the loading buffer at the arrow and cell content of Tc-MIBI subsequently determined (o). Under each condition, CCCP was added to the loading buffers as indicated by the arrows and cell content of Tc-MIBI determined ( , , ·). Each point is the mean ±SEM of 3 determinations.
(§2) Monolayers of spontaneously contractile chick ventricular myocardial cells were obtained from disaggregated 10-day old chick embryo hearts by a slight modification of previously published methods (Horres, C. R., et al., In Pinson, A. (ed.), The Heart Cell in Culture, Boca Raton, CRC Press, pp. 77-108 (1987)). Hearts were trimmed of connective tissue and atria, finely minced and serially exposed to 0.024% (w/v) trypsin in Ca^2+ - and Mg^2+ - free Earle's salt solution for 7 minutes at 37° C. Gentle trituration and agitation on an orbital shaker bath aided disaggregation. Cells released from the first exposure were discarded and cells aspirated from the next four exposures were then added to an equal volume of trypsin deactivating solution consisting of ice-cold culture medium. Cells were centrifuged at 400 g for 10 minutes, resuspended and combined in culture medium, counted with a hemocytometer and diluted to yield a suspension of 5×10^5 cells/ml. 12 ml of suspension were incubated in 100 mm plastic culture dishes containing 7 coverslips (25 mm diameter) placed on the bottom of each dish to serve as substrate for cell growth. Cells were maintained in a humidified atmosphere of 5% CO2 /95% air for 3-4 days yielding a confluent layer of spontaneously contractile myocytes on each coverslip.
as §1, with “(1951)). Tc-MIBI binding to glass coverslips without cells was used as an estimate of non-specific adhesion to the substrate ([…] obtained with cellular preparations); this value was subtracted from total uptake determinations to derive the cell-associated counts. Use of generator equilibrium equations (Lamson, M. L., et al., i J. Nucl. Med. 16:639-641 (1975)) allowed calculation of absolute moles of Tc-MIBI in solutions and preparations. Results were therefore expressed as fmol cellular Tc-MIBI/mg protein per nM extracellular Tc-MIBI concentration.” for “(1951)).”

[4] = tested on: cultured chick heart cells; experiment: Effect of valinomycin on tetraphenylborate enhancement of Tc-MIBI accumulation in high Ko buffer (Table 1); format: cell-based; conditions: valinomycin 1 ug/ml; high K buffer
Experimental: as §2
Radioactive uptake methods have been described in detail (Piwnica-Worms, D., et al, Circ. (in press). Briefly, coverslips with confluent cells were removed from culture media and pre-equilibrated for 40-60 seconds in MEBSS buffer. Uptake and retention experiments were initiated by immersion of coverslips in 60 mm glass Pyrex dishes containing loading solution consisting of buffer with 0.1-0.6 nM [^99m Tc-MIBI] (0.01-0.4 Ci/nmole; 25-100 uCi/ml). Preparations were removed at various times and rinsed three times in 25 ml volumes of ice-cold (2° C.) isotope-free buffer for 8 seconds each to clear extracellular spaces. Preparations and aliquots of the loading buffer and stock solutions were counted in a well-type sodium iodide gamma counter after which cell protein on each coverslip was extracted in 1% sodium dodecylsulfate with 10 mM sodium borate and assayed by the method of Lowry (Lowry, O. H., et al., J. Biol. Chem. 193:265-275 (1951)). Tc-MIBI binding to glass coverslips without cells was used as an estimate of non-specific adhesion to the substrate ([…] obtained with cellular preparations); this value was subtracted from total uptake determinations to derive the cell-associated counts. Use of generator equilibrium equations (Lamson, M. L., et al., i J. Nucl. Med. 16:639-641 (1975)) allowed calculation of absolute moles of Tc-MIBI in solutions and preparations. Results were therefore expressed as fmol cellular Tc-MIBI/mg protein per nM extracellular Tc-MIBI concentration. Division of this value by the cell water space (6.9 ul/mg protein; Chiu, M. L., et al., J. Nucl. Med. (31:1646-1653(1990)) yields a nominal intracellular/extracellular Tc-MIBI accumulation ratio neglecting subcellular compartmentation of the agent.
To further explore the influence of TPB on any potential-independent accumulation of Tc-MIBI in myocytes, preparations were exposed to 130 mM K° 20 mM Clo buffer (Table 1). […] Equilibration of intracellular and extracellular spaces occurred in the presence of high K buffer plus valinomycin under all conditions (in/out ration ~1; P=NS) indicating the lack of any significant potential-independent membrane binding of Tc-MIBI.
Preparations were incubated in high Ko low Clo loading buffer +/- valinomycin (1 ug/ml) for 20 minutes in the presence of TPB (10^-5 M) or for 40 minutes in its absence to determine peak accumulation of Tc-MIBI under each condition. Values are the mean ±SEM. Tc-MIBI in/out ratios were obtained by dividing net uptake values by the cell water space of […] (Chiu, M. L., et al., J. Nucl. 31:1646-1653 (1990)). +p<0.01; * p<0.001 compared to net uptake in 130 mM Ko buffer.

SMILES: CS(=O)(=O)O [MSA, methanesulfonate, reference compound]
- uptake kinetics or equilibrium content of Tc-MIBI [1]: did not significantly alter uptake kinetics or equilibrium content of Tc-MIBI
- TPB-induced enhancement of Tc-MIBI accumulation ([1]; TPB 10^-5 M): did not interfere with the TPB-induced enhancement of Tc-MIBI accumulation

SMILES: CC[C@H]1/C=C/C=C/C[C@@H](C)[C@H](O)[C@@](C)(O)C(=O)[C@@H](C)[C@H](O)[C@@H](C)C(=O)[C@@H](C)[C@H](O)[C@@H](C)/C=C/C(=O)O[C@@H]2[C@H](C)[C@H](CC1)O[C@]1(CC[C@H](C)[C@H](C[C@@H](C)O)O1)[C@H]2C [oligomycin]
- Tc-MIBI uptake or retention ([2]; oligomycin, mitochondrial hyperpolarization): increases Tc-MIBI uptake or retention

SMILES: [N-]=[N+]=[N-] [sodium azide]
- net uptake of Tc-MIBI ([2]; sodium azide in combination with oligomycin): virtually eliminates net uptake of the agent

SMILES: CO[C@@H]1C[C@@H](C[C@H]2CC[C@H](C)[C@H]([C@@H](C)C(=O)O)O2)O[C@]2(O[C@](C)([C@H]3CC[C@@](C)([C@@H]4O[C@@H]([C@H]5O[C@@](O)(CO)[C@H](C)C[C@@H]5C)C[C@@H]4C)O3)C[C@H]2C)[C@@H]1C [nigericin]
- net cellular uptake of Tc-MIBI ([2]; nigericin, mitochondrial hyperpolarization): increases net cellular uptake of Tc-MIBI

SMILES: N#CC(C#N)=NNc1cccc(Cl)c1 [CCCP, carbonyl cyanide-m-chlorphenylhydrazone, reference compound]
- unidirectional influx and net cellular accumulation of Tc-MIBI ([2]; CCCP, mitochondrial depolarization): decreases the unidirectional influx and net cellular accumulation of TC-MIBI
- release of myocellular Tc-MIBI [3]: rapid and near complete release of myocellular Tc-MIBI

SMILES: CC(C)[C@@H]1NC(=O)[C@H](C)OC(=O)[C@@H](C(C)C)NC(=O)[C@@H](C(C)C)OC(=O)[C@H](C(C)C)NC(=O)[C@H](C)OC(=O)[C@@H](C(C)C)NC(=O)[C@@H](C(C)C)OC(=O)[C@H](C(C)C)NC(=O)[C@H](C)OC(=O)[C@@H](C(C)C)NC(=O)[C@@H](C(C)C)OC1=O [valinomycin, reference compound]
- net accumulation of Tc-MIBI [4]: eliminated net accumulation of Tc-MIBI
